Experimental data published in ChEMBL document CHEMBL1201862, “PubChem BioAssay data set” (2004).
Activity calls are given as the source filed them.

Key:
[1] = target: FAD-linked sulfhydryl oxidase ALR (Homo sapiens, UniProt P55789); assay: ALR-catalysed DTT oxidation blockers – biochemical, H2O2 detection, luminescence, cherry-pick, dose response (AID 493248)
Aminopeptidase N = target: T1, Aminopeptidase N (Plasmodium falciparum FcB1/Columbia, UniProt O96935); assay: malaria alanyl aminopeptidase activity blockers – biochemical, fluorogenic H-Leu-NHMec substrate, 1536-well (AID 1445); parameters: species or system Plasmodium falciparum 3D7, 3D7
T1 sequence (O96935 whole entry): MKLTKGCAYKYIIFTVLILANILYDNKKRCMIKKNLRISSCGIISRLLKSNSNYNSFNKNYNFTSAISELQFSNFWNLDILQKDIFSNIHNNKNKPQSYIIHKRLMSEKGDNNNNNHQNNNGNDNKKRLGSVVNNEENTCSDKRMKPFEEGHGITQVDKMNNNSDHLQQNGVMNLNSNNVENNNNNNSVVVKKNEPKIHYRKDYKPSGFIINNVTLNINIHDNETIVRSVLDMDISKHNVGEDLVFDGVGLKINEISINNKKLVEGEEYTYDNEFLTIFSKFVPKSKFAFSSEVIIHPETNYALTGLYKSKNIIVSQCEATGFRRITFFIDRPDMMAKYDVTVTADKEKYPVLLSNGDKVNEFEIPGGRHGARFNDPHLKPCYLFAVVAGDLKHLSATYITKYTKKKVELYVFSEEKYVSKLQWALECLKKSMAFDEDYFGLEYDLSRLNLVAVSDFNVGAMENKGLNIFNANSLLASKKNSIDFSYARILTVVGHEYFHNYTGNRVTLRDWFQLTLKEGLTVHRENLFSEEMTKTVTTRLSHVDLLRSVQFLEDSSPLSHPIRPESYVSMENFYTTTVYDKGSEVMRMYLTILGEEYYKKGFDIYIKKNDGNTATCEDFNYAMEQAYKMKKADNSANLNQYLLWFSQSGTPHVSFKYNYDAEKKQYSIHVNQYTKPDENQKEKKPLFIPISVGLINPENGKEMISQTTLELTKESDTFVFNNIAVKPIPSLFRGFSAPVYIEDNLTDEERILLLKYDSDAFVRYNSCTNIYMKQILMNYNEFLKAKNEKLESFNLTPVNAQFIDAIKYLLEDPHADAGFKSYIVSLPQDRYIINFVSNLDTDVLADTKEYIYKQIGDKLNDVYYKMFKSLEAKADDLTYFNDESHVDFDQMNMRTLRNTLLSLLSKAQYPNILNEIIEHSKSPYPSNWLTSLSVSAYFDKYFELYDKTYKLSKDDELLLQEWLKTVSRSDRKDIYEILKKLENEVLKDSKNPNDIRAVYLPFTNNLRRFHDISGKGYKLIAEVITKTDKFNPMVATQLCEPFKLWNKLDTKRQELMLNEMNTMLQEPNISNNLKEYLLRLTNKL

[2] = target: T2, Heat shock factor protein 1 (Mus musculus, UniProt P38532); assay: enhancement of HSF1-driven luciferase signal – cell-based, NIH3T3, luminescence, dose retest, confirmation (AID 435004); format: functional;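 also: stress induced by proteasome inhibitor MG132 added 30 min after compound; luciferase reporter driven by HSF1 response element in NIH3T3 cells; actives raise luminescence as potentiators of the MG132 stress response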
T2 sequence (P38532 whole entry): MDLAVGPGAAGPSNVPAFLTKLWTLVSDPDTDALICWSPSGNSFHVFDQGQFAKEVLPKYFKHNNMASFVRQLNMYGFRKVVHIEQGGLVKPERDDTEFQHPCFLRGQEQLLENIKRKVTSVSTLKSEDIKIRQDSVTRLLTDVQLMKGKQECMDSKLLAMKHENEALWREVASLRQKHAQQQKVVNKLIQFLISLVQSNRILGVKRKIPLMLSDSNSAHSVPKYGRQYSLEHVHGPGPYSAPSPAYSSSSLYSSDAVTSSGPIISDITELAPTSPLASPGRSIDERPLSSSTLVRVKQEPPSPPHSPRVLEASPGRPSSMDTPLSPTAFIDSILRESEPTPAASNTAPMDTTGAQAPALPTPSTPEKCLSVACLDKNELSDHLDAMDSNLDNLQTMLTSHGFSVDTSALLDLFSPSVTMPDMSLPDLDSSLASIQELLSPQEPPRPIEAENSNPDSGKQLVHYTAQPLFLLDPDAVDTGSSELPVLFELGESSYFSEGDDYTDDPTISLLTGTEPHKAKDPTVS

[3] = target: Induced myeloid leukemia cell differentiation protein Mcl-1 (Homo sapiens, UniProt Q07820); format: functional
[4] = NIH3T3 cell viability loss – ATP luminescence, mouse fibroblasts, counter-screen, dose response (AID 2010); format: functional, cell-based;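 also: cells exposed to compound for about 90 hours before reading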
INS1 = assay: INS-1E survival protection against cytokine death – cell-based, luminescence, retest, dose response (AID 449756); format: functional; settings: Rattus norvegicus;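 also: cell death triggered by IL-1 beta plus TNF-alpha plus IFN-gamma mixture; protective hits raise ATP signal compared with cytokine alone wells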
[5] = Trypanosoma cruzi growth suppression in host cells – NIH3T3 host cells, beta-gal luminescence, confirmation (AID 2044); format: functional, cell-based;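 also: intracellular parasites grown in NIH/3T3 mouse fibroblasts as host cells; luminescent beta-galactosidase reporter signal from transgenic T. cruzi replicating inside host cells; inhibitors lower the luminescence signal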
Nonstructural protein 1 = Nonstructural protein 1 (Influenza A virus, UniProt Q194T2); format: functional, Influenza A virus (A/California/07/2009(H1N1))
[6] = loss of viability in HepG2 cells – cell-based, CellTiter-Glo, cherry-picked, cytotoxicity control for Shn3 inhibitor project, dose response (AID 624134); format: functional
[7] = reduction of Shn3 3'UTR-driven luciferase in osteoblasts – cell-based, Clone20 osteoblasts, firefly luciferase, cherry-picked, dose response (AID 624132); format: functional;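 also: firefly luciferase luminescence from reporter carrying the Shn3 3'UTR in osteoblasts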
[8] = non-specific 3'UTR reporter inhibition in Clone20-Shn3RL – cell-based, Renilla luciferase, cherry-picked, counter-screen for Shn3 inhibitor project, dose response (AID 624133); format: functional
Protein RecA = target: T3, Protein RecA (Mycobacterium tuberculosis, UniProt P9WHJ3); assay: Fluorescence Cell-Free Homogeneous Dose Retest to Identify Inhibitors of RecA-Intein Splicing Activity. [Related pubchem assays (depositor defined):AID2097, AID2223, AID489010, AID492950]; format: functional
T3 sequence (P9WHJ3 whole entry): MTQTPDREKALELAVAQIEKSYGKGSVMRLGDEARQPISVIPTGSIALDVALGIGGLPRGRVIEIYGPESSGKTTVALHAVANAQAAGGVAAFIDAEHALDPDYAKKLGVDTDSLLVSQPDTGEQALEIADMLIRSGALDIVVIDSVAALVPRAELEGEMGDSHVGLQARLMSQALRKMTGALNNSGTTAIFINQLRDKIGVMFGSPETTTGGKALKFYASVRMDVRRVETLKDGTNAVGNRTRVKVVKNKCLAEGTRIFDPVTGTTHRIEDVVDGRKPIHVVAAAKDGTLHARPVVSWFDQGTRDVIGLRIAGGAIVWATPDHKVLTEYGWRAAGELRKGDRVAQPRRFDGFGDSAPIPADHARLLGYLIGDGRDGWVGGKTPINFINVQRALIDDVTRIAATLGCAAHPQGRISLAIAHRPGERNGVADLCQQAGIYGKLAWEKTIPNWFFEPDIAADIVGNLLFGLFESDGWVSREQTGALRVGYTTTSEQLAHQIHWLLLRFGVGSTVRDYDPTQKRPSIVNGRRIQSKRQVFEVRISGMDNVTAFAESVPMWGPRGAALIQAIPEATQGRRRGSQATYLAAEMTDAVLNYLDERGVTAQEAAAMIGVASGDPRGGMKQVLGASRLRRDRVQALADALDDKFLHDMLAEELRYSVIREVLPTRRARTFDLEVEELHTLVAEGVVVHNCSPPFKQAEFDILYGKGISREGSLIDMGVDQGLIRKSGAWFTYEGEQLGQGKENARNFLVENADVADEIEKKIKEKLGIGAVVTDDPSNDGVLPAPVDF

[9] = target: T4, Replicative DNA helicase DnaB (Mycobacterium tuberculosis, UniProt P9WMR3); assay: DnaB intein splicing inhibitors, dose response, biochemical, cell-free fluorescence (AID 449749); format: functional
T4 sequence (P9WMR3 whole entry): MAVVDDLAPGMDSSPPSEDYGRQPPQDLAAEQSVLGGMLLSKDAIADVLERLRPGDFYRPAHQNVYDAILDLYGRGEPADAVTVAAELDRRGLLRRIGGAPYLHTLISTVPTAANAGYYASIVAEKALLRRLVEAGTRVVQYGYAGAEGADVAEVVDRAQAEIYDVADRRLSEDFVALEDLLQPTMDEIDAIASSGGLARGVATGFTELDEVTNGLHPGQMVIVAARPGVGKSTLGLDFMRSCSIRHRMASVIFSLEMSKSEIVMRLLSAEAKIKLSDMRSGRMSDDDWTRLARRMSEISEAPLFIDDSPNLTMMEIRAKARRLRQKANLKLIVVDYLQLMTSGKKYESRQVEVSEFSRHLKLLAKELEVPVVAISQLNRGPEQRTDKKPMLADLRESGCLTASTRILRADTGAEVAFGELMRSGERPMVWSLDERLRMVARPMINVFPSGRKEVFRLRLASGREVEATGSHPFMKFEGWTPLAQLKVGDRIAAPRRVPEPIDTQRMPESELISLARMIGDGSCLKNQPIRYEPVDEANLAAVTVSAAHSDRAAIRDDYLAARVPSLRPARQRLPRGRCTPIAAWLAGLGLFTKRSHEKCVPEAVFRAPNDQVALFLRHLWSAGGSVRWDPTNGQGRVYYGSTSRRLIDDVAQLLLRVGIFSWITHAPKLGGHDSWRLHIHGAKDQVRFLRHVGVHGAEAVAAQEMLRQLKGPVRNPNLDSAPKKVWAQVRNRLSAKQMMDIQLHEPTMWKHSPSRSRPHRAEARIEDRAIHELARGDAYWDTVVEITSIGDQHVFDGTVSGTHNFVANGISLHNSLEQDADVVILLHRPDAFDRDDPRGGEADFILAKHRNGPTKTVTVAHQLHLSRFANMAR

Fatty acid synthase [10] = target: T5, Fatty acid synthase (Homo sapiens, UniProt P49327); assay: inhibition of human FAS-TE enzyme activity – biochemical, kinetic fluorescence intensity, dose response (AID 624326); format: functional;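 also: rate of fluorescence rise from hydrolysis of a fluorogenic O-methyl fluorescein ester substrate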
Fatty acid synthase [11] = target: T5, Fatty acid synthase; assay: inhibition of human FAS-TE enzyme activity – biochemical, endpoint fluorescence intensity, uHTS hits, dose response (AID 624327); format: functional;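 also: fluorescence from hydrolysis of an O-methyl fluorescein acyl ester substrate by the enzyme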
[12] = intracellular Trypanosoma cruzi inhibitors in host cells – cell-based, plate reader, cherry-pick samples, set 3, dose response (AID 651818); format: functional;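 also: compounds incubated with infected cells for about four days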
[13] = blockers of HIV-1 envelope-mediated cell-cell fusion – cherry-pick, dose response (AID 652057); format: functional, cell-based

FAD-linked sulfhydryl oxidase ALR, sequence (P55789 whole entry): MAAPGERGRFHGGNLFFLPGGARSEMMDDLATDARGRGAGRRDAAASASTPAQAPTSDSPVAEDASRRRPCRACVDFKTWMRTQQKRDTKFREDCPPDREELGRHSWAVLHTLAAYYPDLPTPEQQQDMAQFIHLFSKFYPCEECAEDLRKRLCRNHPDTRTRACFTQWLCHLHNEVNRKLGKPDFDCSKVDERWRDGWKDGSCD
Induced myeloid leukemia cell differentiation protein Mcl-1, sequence (Q07820 whole entry): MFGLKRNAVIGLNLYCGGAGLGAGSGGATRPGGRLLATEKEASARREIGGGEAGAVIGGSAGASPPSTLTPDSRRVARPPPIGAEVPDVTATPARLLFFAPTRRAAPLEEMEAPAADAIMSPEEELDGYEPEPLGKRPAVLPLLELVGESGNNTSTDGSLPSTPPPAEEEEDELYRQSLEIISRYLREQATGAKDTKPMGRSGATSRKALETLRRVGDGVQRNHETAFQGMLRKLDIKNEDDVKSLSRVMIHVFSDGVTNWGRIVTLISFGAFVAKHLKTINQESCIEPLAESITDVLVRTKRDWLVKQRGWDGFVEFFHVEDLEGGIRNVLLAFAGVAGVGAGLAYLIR
T5 sequence (P49327 whole entry): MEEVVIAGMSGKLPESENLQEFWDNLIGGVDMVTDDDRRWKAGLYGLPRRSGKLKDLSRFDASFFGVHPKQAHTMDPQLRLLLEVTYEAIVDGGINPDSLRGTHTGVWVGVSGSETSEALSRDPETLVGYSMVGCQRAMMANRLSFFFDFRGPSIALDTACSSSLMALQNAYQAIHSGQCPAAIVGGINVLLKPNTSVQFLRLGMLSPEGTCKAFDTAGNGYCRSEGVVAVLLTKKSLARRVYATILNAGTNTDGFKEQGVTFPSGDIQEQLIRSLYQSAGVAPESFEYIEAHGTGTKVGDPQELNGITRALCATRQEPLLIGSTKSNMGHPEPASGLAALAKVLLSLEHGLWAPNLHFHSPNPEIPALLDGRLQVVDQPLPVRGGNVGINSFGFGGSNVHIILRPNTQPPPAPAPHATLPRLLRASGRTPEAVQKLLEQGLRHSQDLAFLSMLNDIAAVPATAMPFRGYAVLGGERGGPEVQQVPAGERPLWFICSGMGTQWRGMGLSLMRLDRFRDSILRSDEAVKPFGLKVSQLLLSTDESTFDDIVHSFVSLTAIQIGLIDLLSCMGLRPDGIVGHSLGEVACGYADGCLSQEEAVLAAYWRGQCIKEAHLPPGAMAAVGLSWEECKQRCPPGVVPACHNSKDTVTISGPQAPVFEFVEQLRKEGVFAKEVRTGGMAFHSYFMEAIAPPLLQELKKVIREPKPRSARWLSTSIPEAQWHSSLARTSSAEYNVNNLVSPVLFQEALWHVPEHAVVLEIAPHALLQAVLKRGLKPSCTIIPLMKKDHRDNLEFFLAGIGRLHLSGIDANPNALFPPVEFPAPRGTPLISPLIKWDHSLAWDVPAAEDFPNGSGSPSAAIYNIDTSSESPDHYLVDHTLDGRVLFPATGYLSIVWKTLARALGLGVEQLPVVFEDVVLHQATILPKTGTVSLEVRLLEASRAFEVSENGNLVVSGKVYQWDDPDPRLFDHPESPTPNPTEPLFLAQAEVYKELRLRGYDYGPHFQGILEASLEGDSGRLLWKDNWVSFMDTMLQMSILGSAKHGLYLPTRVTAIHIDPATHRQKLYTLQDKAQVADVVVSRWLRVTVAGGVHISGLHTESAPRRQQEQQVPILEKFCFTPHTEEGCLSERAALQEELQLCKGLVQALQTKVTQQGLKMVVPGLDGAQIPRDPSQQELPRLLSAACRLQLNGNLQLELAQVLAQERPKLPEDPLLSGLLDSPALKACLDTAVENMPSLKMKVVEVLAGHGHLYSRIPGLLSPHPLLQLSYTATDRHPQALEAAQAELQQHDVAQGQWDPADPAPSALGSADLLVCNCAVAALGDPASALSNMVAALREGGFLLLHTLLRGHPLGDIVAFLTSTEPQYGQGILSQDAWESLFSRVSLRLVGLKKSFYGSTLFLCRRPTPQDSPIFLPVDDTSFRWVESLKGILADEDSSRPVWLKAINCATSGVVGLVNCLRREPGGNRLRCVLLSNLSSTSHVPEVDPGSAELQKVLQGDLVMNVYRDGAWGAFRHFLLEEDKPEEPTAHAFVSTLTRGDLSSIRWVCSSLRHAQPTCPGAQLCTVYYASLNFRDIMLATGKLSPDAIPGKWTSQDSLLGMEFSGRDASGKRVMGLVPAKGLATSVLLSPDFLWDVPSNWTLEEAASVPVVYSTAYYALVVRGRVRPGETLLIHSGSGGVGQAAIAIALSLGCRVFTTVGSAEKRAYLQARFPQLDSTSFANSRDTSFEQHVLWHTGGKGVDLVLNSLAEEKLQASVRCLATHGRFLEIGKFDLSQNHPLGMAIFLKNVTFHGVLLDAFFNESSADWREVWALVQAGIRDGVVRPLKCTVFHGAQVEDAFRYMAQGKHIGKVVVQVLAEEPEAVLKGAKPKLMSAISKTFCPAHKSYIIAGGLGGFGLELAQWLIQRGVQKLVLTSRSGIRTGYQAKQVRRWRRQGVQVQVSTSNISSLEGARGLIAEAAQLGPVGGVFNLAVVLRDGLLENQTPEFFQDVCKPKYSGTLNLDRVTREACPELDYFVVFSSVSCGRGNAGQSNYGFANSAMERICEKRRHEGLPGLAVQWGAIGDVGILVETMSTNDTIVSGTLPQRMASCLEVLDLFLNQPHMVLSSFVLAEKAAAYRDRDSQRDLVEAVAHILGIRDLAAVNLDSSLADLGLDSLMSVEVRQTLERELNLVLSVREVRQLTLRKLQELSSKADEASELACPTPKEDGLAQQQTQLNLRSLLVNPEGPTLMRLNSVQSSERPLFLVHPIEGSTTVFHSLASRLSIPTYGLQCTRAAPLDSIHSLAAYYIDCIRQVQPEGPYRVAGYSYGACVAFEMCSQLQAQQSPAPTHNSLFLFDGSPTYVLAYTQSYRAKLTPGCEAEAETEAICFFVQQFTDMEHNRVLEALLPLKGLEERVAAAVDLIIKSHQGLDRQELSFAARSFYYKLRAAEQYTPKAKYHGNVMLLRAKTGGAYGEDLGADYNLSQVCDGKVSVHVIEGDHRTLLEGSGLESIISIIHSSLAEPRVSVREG
Nonstructural protein 1, sequence (Q194T2 whole entry): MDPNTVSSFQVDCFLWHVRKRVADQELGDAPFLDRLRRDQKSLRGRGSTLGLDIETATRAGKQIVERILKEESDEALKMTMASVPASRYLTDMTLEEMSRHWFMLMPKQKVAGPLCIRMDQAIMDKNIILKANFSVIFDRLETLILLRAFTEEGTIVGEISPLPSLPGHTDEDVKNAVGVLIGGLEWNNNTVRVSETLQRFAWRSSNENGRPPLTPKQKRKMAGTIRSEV

## Cc1ccc(NC2CCCN(C(=O)c3cn4cc(Cl)ccc4n3)C2)cc1C (stereo not drawn)
[1]
  AC50: 1.01 µM (active)

## COc1ccc(C2CC(c3ccccc3)=NN2c2ccccc2)c(C(=O)O)c1OC (stereo not drawn)
[1]
  AC50: 4.74 µM (active)

## CCO/C(O)=C1/C(CC)=Nc2ccccc2N=C1NS(=O)(=O)c1cc(Br)ccc1Br
Aminopeptidase N
  IC50: 30.3 µM (active)

## O=C(NN/C=C1\C(=O)N(c2ccccc2Cl)C(=O)c2ccccc21)c1cccnc1
Aminopeptidase N
  IC50: 32.6 µM (active)

## O=C(CCC1CCCN(C(=O)c2ccc3cc[nH]c3c2)C1)NCc1ccc(F)c(F)c1 (stereo not drawn)
[2]
  EC50: 38.9 µM (active)
Aminopeptidase N
  IC50: 33.1 µM (active)

## O=C(CCN1CCOCC1)Nc1c(O)nc2ccc(Br)cc2c1-c1ccccc1
Aminopeptidase N
  IC50: 93.9 µM (active)

## O=C1N/C(=N\c2ccccc2)S/C1=C\C=C\c1ccco1
[3]
  IC50: 12.2 µM (active)

## Cc1ccc(C(=O)NCCSc2snnc2C)cc1
[1]
  AC50: 0.117 µM (active)

## CCN(CC)c1ccc(CNc2nc3ccccc3n2CCN2CCCCC2)cc1
[4]
  EC50: 7.56 µM (active)
INS1
  AC50: 7.16 µM (active)
[5]
  EC50: 3.28 µM (active)
Nonstructural protein 1
  IC50: 27 µM (active)
[6]
  AC50: 10.2 µM (active)
[1]
  AC50: 0.68 µM (active)
[7]
  AC50: 2.64 µM (active)
[8]
  AC50: 1.51 µM (active)

## CCc1n[nH]c(C(=O)N2CCCC(Nc3cccc(F)c3)C2)c1C (stereo not drawn)
[1]
  AC50: 2.88 µM (active)

## Cc1ccc(S(=O)(=O)Nc2cc(C)c(O)cc2C)cc1
[1]
  AC50: 3.11 µM (active)

## Cc1ccc(N2C(=O)NC(=O)/C(=C/c3cnc(-c4ccccc4)nc3)C2=O)cc1C
[3]
  IC50: 1.66 µM (active)

## COc1ccccc1C(NC(C)=O)c1c(O)ccc2ccc(O)cc12 (stereo not drawn)
Protein RecA
  EC50: 2.89 µM (active)
[1]
  AC50: 2.44 µM (active)
[9]
  AC50: > 380 µM (inactive)

## COc1cccc(NC(=O)CN2C(=O)COc3ccc(S(=O)(=O)N4CCC(C)CC4)cc32)c1
[2]
  EC50: > 260 µM (inactive)
Fatty acid synthase [10]
  IC50: 6.57 µM (active)
Fatty acid synthase [11]
  IC50: 7.97 µM (active)

## C[C@@H]1CCCCO[C@H](CN(C)Cc2ccccc2)[C@@H](C)CN([C@H](C)CO)C(=O)c2cc(NC(=O)Nc3ccc(C(F)(F)F)cc3)ccc2O1
[12]
  AC50: 5.97 µM (active)

## C[C@@H]1CN([C@H](C)CO)C(=O)c2cc(NS(=O)(=O)c3ccc(Cl)cc3)ccc2O[C@H]1CN(C)Cc1ccc(Cl)c(Cl)c1
[12]
  AC50: 1.81 µM (active)

## C[C@@H]1CCCCO[C@H](CN(C)C(=O)Nc2cccc3ccccc23)[C@@H](C)CN([C@H](C)CO)C(=O)c2cc(NS(=O)(=O)c3ccc(Cl)cc3)ccc2O1
[12]
  AC50: 3.37 µM (active)

## COc1ccc(S(=O)(=O)Nc2ccc3c(c2)CC(=O)N([C@H](C)CO)C[C@@H](C)[C@@H](CN(C)Cc2ccc(-c4ccccc4)cc2)O3)cc1
[12]
  AC50: 2.35 µM (active)

## C[C@@H]1CN([C@@H](C)CO)C(=O)c2cccc(NS(=O)(=O)c3ccccc3)c2O[C@@H]1CN(C)Cc1ccc(-c2ccccc2)cc1
[12]
  AC50: 3.3 µM (active)

## C[C@H]1CN([C@@H](C)CO)C(=O)c2cccc(NC(=O)c3cnccn3)c2O[C@H]1CN(C)Cc1ccc(C(=O)Nc2ccccc2N)cc1
[12]
  AC50: 0.803 µM (active)

## CC(C)CC#Cc1ccc2c(c1)O[C@@H](CN(C)C(=O)C1CCCCC1)[C@H](C)CN([C@@H](C)CO)S2(=O)=O
[13]
  AC50: 27.8 µM (active)
